Measured values: patent US6486193B2, “3-substituted pyrrolidines useful as inhibitors of matrix metalloproteinases” (Aventis Pharmaceuticals Inc., priority 1998, dated 2002)

Columns and labels:
Assay type in all cases: biochemical
MMP-3 = target: T1, MMP-3 (Homo sapiens, UniProt P08254); test: Determination of inhibition constant (Ki) for MMP-3, fluorogenic substrate; conditions: footnote: results are identical for MMP-1, MMP-2, MMP-3, MMP-13 and MMP-14, read-out: MMP Ki app
T1 construct: The active MMP-3 was obtained by treatment of proMMP-3 with trypsin; endogenous in cells; host or cells: human rheumatoid synovial fibroblasts stimulated with macrophage-conditioned medium (secreted proenzyme purified from the medium)
Method: ProMMP-3 (EC 3.4.24.17; Stromelysin-1) was purified from culture medium of human rheumatoid synovial fibroblasts stimulated with macrophage-conditioned medium according to Okada, Y. et al., J. Biol. Chem. 261, 14245-14255 (1986). The active MMP-3 was obtained by treatment of proMMP-3 with trypsin (5 μg/mL) at 37° C. for 30 minutes, followed by addition of soybean trypsin inhibitor (50 μg/mL). Aliquots of the activated MMP-3 were stored at −20° C.
The activated MMP-3 is assayed using a fluorogenic substrate, Mca-Pro-Leu-Gly-Leu-Dpa-Ala-Arg-NH2, Knight, C.G. et al., FEBS Lett. 296, 263-266 (1992), at 37° C. in an assay buffer containing 50 mM Tris, pH 7.6, 0.2 M sodium chloride, 50 mM calcium chloride, and 0.02% Brij-35. The increase in fluorescence due to cleavage of Gly-Leu peptide bond by MMP-3 was monitored with Perkin-Elmer LS50B Fluorimeter (λex 328 nm, λem 393 nm, excitation slit 2.5, emission slit 10). Substrate and inhibitor stock solutions were made in DMF and 0.1 % HCl-DMF, respectively. For determination of Ki values for MMP-3 inhibitors, a series of intermediate inhibitor solutions were prepared in 0.1% HCl-DMF and 1 or 2 μL of the diluted inhibitor solution was mixed with 1 μL of 2 mM substrate solution in DMF in a quartz cuvette containing 2 mL of assay buffer. The enzyme (10 μL of 0.2 μM MMP-3 dilution in assay buffer) was added at the last to start the reaction. For routine measurement of a Ki value for a reversible, competitive inhibitor, the initial rates in the presence of at least four inhibitor concentrations (two concentrations above Ki and two concentrations below Ki) were measured using [S]=1 μM (<<Km) and [MMP-3]=1 nM. Under these conditions, the measured Ki, app is close to true Ki.
(§1) The K, for a competitive inhibitor is calculated using: V0/vi=(1+[I]/Ki, app) and Ki=Ki, app/(1+[S]/Km), where v0 is the initial rate in the absence of inhibitor, vi is the initial rate in the presence of inhibitor at the concentration of [I], [S] is the substrate concentration, and Km is the Michaelis constant. If slow binding is observed (i.e. if the approach to the binding equilibrium is slow), the final steady-state rate rather than the initial rate is taken as vi.

MMP-13 = MMP-13 (Homo sapiens, UniProt P45452); test: Ki app for MMP-13; conditions: footnote: results are identical for MMP-1, MMP-2, MMP-3, MMP-13 and MMP-14
MMP-1 = target: T2, MMP-1 (Homo sapiens, UniProt P03956); test: Determination of inhibition constant (Ki) for MMP-1, fluorogenic substrate; conditions: footnote: results are identical for MMP-1, MMP-2, MMP-3, MMP-13 and MMP-14, read-out: MMP Ki app
T2 construct: The active MMP-1 was obtained by treatment of proMMP-1 with trypsin; endogenous in cells; host or cells: human rheumatoid synovial fibroblasts stimulated with macrophage-conditioned medium (secreted proenzyme purified from the medium)
T2 sequence (P03956 100-469): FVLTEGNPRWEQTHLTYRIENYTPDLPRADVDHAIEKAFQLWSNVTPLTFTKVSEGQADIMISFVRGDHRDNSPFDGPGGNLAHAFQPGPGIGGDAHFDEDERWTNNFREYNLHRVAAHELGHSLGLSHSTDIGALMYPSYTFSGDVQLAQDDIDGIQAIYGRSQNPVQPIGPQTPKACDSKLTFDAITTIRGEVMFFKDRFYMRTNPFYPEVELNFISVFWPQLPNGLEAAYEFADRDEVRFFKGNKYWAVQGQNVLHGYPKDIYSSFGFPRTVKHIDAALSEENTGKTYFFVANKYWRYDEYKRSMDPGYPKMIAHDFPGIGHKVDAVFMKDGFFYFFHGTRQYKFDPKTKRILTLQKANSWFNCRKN
Method: ProMMP-1 (EC 3.4.24.7; interstitial collagenase) was purified from culture medium of human rheumatoid synovial fibroblasts stimulated with macrophage-conditioned medium according to Okada, Y. et al., J. Biol. Chem. 261, 14245-14255 (1986). The active MMP-1 was obtained by treatment of proMMP-1 with trypsin (5 μg/mL) at 37° C. for 30 minutes, followed by addition of soybean trypsin inhibitor (50 μg/mL).
Determination of Inhibition Constant (Ki) for MMP-1 The activated MMP-1 is assayed using a fluorogenic substrate, Mca-Pro-Leu-Gly-Leu-Dpa-Ala-Arg-NH2, Knight, C. G. et al., FEBS Lett. 296, 263-266 (1992), at 37° C. in 2.0 mL of assay buffer containing 50 mM Tris, pH 7.6, 0.2 M sodium chloride, 50 mM calcium chloride, and 0.02% Brij-35. The increase in fluorescence due to cleavage of Gly-Leu peptide bond by MMP-3 was monitored with Perkin-Elmer LS50B Fluorimeter (λex328 nm, λem 393 nm, excitation slit 2.5, emission slit 10). Substrate and inhibitor stock solutions were made in DMF. For determination of Ki values for MMP-1 inhibitors, a series of intermediate inhibitor solutions were prepared in DMF and 1 or 2 μL of the diluted inhibitor solution was mixed with 1 μL of 2 mM substrate solution in DMF in a quartz cuvette containing 2 mL of assay buffer. The enzyme (10 μL of 0.2 μM MMP-3 dilution in assay buffer) was added at the last to start the reaction. For routine measurement of a Ki value for a reversible, competitive inhibitor, the initial rates in the presence of at least four inhibitor concentrations (two concentrations above Ki and two concentrations below Ki) were measured using [S]=1 μM (<<Km) and [MMP-1]=0.8 nM. Under these conditions, the measured Ki app is close to true Ki.
as §1, with “Ki” for “K,”, “v0/vi=(1+[I]/Ki,” for “V0/vi=(1+[I]/Ki,”

MMP-14 = MMP-14 (Homo sapiens, UniProt P50281); test: Ki app for MMP-14; conditions: footnote: results are identical for MMP-1, MMP-2, MMP-3, MMP-13 and MMP-14

T1 sequence (P08254 100-477): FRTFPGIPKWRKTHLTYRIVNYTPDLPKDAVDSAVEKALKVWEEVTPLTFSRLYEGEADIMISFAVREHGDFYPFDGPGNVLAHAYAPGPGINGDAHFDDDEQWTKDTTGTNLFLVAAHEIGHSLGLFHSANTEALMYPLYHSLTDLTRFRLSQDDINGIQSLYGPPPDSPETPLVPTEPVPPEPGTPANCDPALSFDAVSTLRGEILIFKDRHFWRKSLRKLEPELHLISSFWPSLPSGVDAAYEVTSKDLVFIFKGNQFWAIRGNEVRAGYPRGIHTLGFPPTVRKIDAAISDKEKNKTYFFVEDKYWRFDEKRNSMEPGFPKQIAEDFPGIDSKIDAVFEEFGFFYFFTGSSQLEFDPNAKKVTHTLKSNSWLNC

Row | SMILES | Ki (MMP-3) [µM] | Ki (MMP-13) [µM] | Ki (MMP-1) [µM] | Ki (MMP-14) [µM]
1 | CNC(=O)[C@H](Cc1cccnc1)NC(=O)[C@@H]1[C@H](Cc2ccccc2)CCN1C(=O)[C@@H](S)C(C)C [Compound 1d, (2S,3R)-3-Benzyl-1-((S)-2-mercapto-3-methyl-butanoyl)-pyrrolidine-2-carboxylic acid ((S)-1-methylcarbamoyl-2-pyridin-3-yl-ethyl)-amide] | > 10 | > 10 | > 10 | > 10
2 | CNC(=O)[C@@H](NC(=O)[C@@H]1[C@@H](Cc2ccccc2)CCN1C(=O)[C@@H](S)C(C)C)C(C)(C)C [Compound 1g, (2S,3S)-3-Benzyl-1-((S)-2-mercapto-3-methyl-butanoyl)-pyrrolidine-2-carboxylic acid ((S)-2,2-dimethyl-1-methylcarbamoyl-propyl)-amide] | > 10 | > 10 | > 10 | > 10
3 | CNC(=O)[C@H](Cc1cccnc1)NC(=O)[C@@H]1[C@@H](Cc2ccccc2)CCN1C(=O)[C@@H](S)C(C)C [Compound 1c, (2S,3S)-3-Benzyl-1-((S)-2-mercapto-3-methyl-butanoyl)-pyrrolidine-2-carboxylic acid ((S)-1-methylcarbamoyl-2-pyridin-3-yl-ethyl)-amide] | > 10 | > 10 | > 10 | > 10
4 | CNC(=O)[C@H](Cc1ccc(O)cc1)NC(=O)[C@@H]1[C@@H](Cc2ccccc2)CCN1C(=O)[C@@H](S)C(C)C [Compound 1a, (2S,3S)-3-Benzyl-1-((S)-2-mercapto-3-methyl-butanoyl)-pyrrolidine-2-carboxylic acid [(S)-2-(4-hydroxy-phenyl)-1-methylcarbamoyl-ethyl]-amide] | > 10 | > 10 | > 10 | > 10

Now from value to compound:

Row | Ki (MMP-3) [µM] | Ki (MMP-13) [µM] | Ki (MMP-1) [µM] | Ki (MMP-14) [µM] | SMILES
5 | > 10 | > 10 | > 10 | > 10 | CNC(=O)[C@@H](Cc1cccnc1)NC(=O)[C@@H]1[C@@H](Cc2ccccc2)CCN1C(=O)[C@@H](S)C(C)C [Compound 1e, (2S,3S)-3-Benzyl-1-((S)-2-mercapto-3-methyl-butanoyl)-pyrrolidine-2-carboxylic acid ((R)-1-methylcarbamoyl-2-pyridin-3-yl-ethyl)-amide]
6 | > 10 | > 10 | > 10 | > 10 | CNC(=O)[C@@H](NC(=O)[C@@H]1[C@H](Cc2ccccc2)CCN1C(=O)[C@@H](S)C(C)C)C(C)(C)C [Compound 1h, (2S,3R)-3-Benzyl-1-((S)-2-mercapto-3-methyl-butanoyl)-pyrrolidine-2-carboxylic acid ((S)-2,2-dimethyl-1-methylcarbamoyl-propyl)-amide]
7 | > 10 | > 10 | > 10 | > 10 | CNC(=O)[C@@H](Cc1cccnc1)NC(=O)[C@@H]1C(Cc2ccccc2)CCN1C(=O)[C@@H](S)C(C)C (stereo in doubt) [Compound 1f, (2S,3S)-3-Benzyl-1-((S)-2-mercapto-3-methyl-butanoyl)-pyrrolidine-2-carboxylic acid ((R)-1-methylcarbamoyl-2-pyridin-3-yl-ethyl)-amide]
8 | > 10 | > 10 | > 10 | > 10 | CNC(=O)[C@H](Cc1ccc(O)cc1)NC(=O)[C@@H]1[C@H](Cc2ccccc2)CCN1C(=O)[C@@H](S)C(C)C [Compound 1b, (2S,3R)-3-Benzyl-1-((S)-2-mercapto-3-methyl-butanoyl)-pyrrolidine-2-carboxylic acid [(S)-2-(4-hydroxy-phenyl)-1-methylcarbamoyl-ethyl]-amide]
